These results are taken from EP0385662B1, “Heterocycles with inhibitory activity of 5-lipoxygenase” (ZENECA LIMITED, priority 1989, dated 1990).

Assay [1] concerns 5-LO. Briefly: Test c): ex vivo variation of test b), oral administration, blood collection, A23187 challenge, radioimmunoassay of LTB4. Format: in vivo. The method, then:
(§1) As stated previously, the heterocycles of the formula I are inhibitors of the enzyme 5-LO. […] This test provides a measure of the intrinsic inhibitory properties against soluble 5-LO in an extracellular environment. • b) An in vitro assay system involving incubating a test compound with heparinised human blood, prior to challenge with the calcium ionophore A23187 and then indirectly measuring the inhibitory effects on 5-LO by assaying the amount of L TB4 using the specific radioimmunoassay described by Carey and Forder (F. Carey and R.A. Forder, Brit. J. Pharmacol. 1985, 84, 34P) which involves the use of a protein-L TB4 conjugate produced using the procedure of Young et alia (Prostaglandins, 1983, 26(4), 605-613). The effects of a test compound on the enzyme cyclooxygenase (which is involved in the alternative metabolic pathway for arachidonic acid and gives rise to prostaglandins, thromboxanes and related metabolites) may be measured at the same time using the specific radioimmunoassay for thromboxane B2(TxB2) described by Carey and Forder (see above). This test provides an indication of the effects of a test compound against 5-LO and also cyclooxygenase in the presence of blood cells and proteins. It permits the selectivity of the inhibitory effect on 5-LO or cyclooxygenase to be assessed. • c) An ex vivo assay system, which is a variation of test b) above, involving administration of a test compound (usually orally as the suspension produced when a solution of the test compound in dimethylsulphoxide is added to carboxymethylcellulose), blood collection, heparinisation, challenge with A23187 and radioimmunoassay of L TB4 and TxB2. […]

Assay [2] addresses T1, 5-LO (Homo sapiens, UniProt P09917).
T1 construct: incubating a test compound with heparinised human blood, prior to challenge with the calcium ionophore A23187; endogenous in cells; host or cells: leukocytes of heparinised human whole blood
T1 sequence (P09917 1-674): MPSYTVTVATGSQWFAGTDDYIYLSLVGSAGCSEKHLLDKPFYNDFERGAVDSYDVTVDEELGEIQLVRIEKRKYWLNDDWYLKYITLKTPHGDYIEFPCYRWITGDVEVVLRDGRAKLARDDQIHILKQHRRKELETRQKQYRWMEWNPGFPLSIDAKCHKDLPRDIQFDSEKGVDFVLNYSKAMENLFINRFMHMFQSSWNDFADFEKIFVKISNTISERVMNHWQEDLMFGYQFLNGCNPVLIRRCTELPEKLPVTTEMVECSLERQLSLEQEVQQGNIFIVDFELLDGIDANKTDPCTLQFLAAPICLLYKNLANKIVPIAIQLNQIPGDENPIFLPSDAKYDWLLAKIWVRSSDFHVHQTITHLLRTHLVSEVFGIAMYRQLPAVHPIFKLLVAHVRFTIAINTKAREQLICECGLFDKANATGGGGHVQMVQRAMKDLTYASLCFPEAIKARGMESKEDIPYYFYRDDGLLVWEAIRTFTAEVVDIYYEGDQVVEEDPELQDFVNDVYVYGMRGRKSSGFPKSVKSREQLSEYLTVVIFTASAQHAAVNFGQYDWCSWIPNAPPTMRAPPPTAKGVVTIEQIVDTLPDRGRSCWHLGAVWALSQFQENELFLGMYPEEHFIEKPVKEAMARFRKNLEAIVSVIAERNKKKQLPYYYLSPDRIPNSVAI
Put plainly: Test b): in vitro heparinised human blood challenged with calcium ionophore A23187, radioimmunoassay of LTB4. In kind it is cell-based. Particulars: A23187 challenge, read-out: IC50 against LTB4. The method, then: as §1, with “J. Pharmacol. 1985, 84, 34P) which involves the use of a protein-L TB4 conjugate produced using the procedure of Young et alia (Prostaglandins, 1983, 26(4), 605-613).” left out, “This test provides an indication of the effects of a test compound against 5-LO and also cyclooxygenase in the presence of blood cells and proteins.” left out

In a further assay the target is T2, cyclooxygenase (Homo sapiens, UniProt P23219).
T2 construct: may be measured at the same time using the specific radioimmunoassay for thromboxane B2(TxB2); endogenous in cells; host or cells: blood cells (platelets) of heparinised human whole blood
Briefly: Test b): in vitro heparinised human blood challenged with A23187, radioimmunoassay of thromboxane B2 (TxB2). Format: cell-based. Particulars: A23187 challenge, read-out: IC50 against TxB2. The method, then:
as §1, with “J. Pharmacol. 1985, 84, 34P) which involves the use of a protein-L TB4 conjugate produced using the procedure of Young et alia (Prostaglandins, 1983, 26(4), 605-613).” left out, “This test provides an indication of the effects of a test compound against 5-LO and also cyclooxygenase in the presence of blood cells and proteins.” left out

A value given as a limit tells only on which side of the number the result lay.

T2 sequence (P23219 24-599): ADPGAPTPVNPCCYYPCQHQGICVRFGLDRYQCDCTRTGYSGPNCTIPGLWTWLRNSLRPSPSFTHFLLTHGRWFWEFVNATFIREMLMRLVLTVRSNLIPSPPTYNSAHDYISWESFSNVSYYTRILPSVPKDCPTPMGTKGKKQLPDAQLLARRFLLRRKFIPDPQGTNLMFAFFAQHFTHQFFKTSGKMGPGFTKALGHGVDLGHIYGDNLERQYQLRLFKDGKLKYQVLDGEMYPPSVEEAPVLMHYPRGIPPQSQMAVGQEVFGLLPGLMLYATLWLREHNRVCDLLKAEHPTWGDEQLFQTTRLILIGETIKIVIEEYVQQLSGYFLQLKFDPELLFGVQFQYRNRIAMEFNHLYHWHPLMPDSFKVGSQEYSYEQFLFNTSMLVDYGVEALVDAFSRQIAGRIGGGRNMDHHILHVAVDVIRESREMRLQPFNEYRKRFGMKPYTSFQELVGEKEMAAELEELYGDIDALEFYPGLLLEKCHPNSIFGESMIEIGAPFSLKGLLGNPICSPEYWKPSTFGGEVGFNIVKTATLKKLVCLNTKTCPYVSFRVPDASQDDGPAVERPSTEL

`COC1(c2cccc(OCc3ccc4c(ccc(=O)n4C)c3)c2)CCOCC1` [4-[3-(1,2-dihydro-1-methyl-2-oxoquinolin-6-ylmethoxy)phenyl]-4-methoxytetrahydropyran]: the “oral ED50 against LTB4” value with 5-LO [1] was 3 mg/kg.
As a reminder, the IC50 is the point on the concentration scale where inhibition reaches its midpoint. Regarding `COC1(c2cc(F)cc(OCc3ccc4ncccc4c3)c2)CCOCC1` [4-[5-fluoro-3-(6-quinolylmethoxy)phenyl]-4-methoxytetrahydropyran], the “oral ED50 against LTB4” value with 5-LO [1] amounted to 8 mg/kg. Besides, the IC50 at 5-LO [2] worked out at 100 nM.
With `COC1(c2cccc(OCC#Cc3ccccn3)c2)CCOCC1` [4-methoxy-4-[3-(3-(2-pyridyl)prop-2-yn-1-yloxy)phenyl]-tetrahydropyran], the “oral ED50 against LTB4” value in the assay on 5-LO [1] is listed as less than 100 mg/kg. The concentration for half-maximal inhibition (IC50) at cyclooxygenase is more than 40000 nM; at 5-LO [2], 2000 nM.
